Source: patent publication US8673949B2 (Bristol-Myers Squibb Company, priority 2008, dated 2014)
Values joined by “and” are separate entries in the source; they are usually repeats but may differ in a detail not shown here. Equal entries are not always repeated. Where two headings read alike, the source gives them in different places. Blank lines part the entries; values can stand above or below the compound they belong to.

Columns and labels:
[1] = bolus IV 5 mpk, cited from earlier work; for Brain conc / Plasma conc: WO 03/074053 data converted to nM; for Brain-to-plasma Ratio: WO 03/074053 data
[2] = Plasma, brain and liver levels after oral gavage in C57BL/6 mice; format: in vivo, mouse; conditions: C57BL/6 mice; for Brain/Liver Ratio / Kp at 1 h / concentration at 1 h / concentration at 1 hr: 1 hr; for Kp at 1 h: brain and plasma
Description: Below, we first report the experimental detail for preparation and isolation of Compound III, and then the biological, in vivo data is described.

[3] = Plasma, brain and liver levels after bolus IV administration in nude mice
[4] = in vivo; conditions: nude, mouse, iv
[5] = mouse, in vivo, iv; for Brain-to-Liver Ratio: nude, 12 mg/kg
[6] = tested on: PrP T44 Tau transgenic mice; conditions: treatment for 3 months; cited from earlier work
[7] = tested on: paclitaxel-induced peripheral neuropathy; conditions: rats; cited from earlier work

Compound: CCC[C@H]1C(=O)C(C)(C)[C@@H](O)CC(=O)O[C@H](/C(C)=C/c2csc(C)n2)CC=C(C)CCC[C@H](C)[C@@H]1O (single isomer, unassigned) [Compound III, 4,8-dihydroxy-16-(1-methyl-2-(2-methyl-4-thiazolyl)-ethenyl)-1-oxa-7-(1-propyl)-5,5,9,13-tetramethyl-cyclohexadec-13-ene-2,6-dione]
Brain conc ([1]; 0.17 hr): 580 nM
Plasma conc ([1]; 0.17 hr): 1540 nM
Brain-to-plasma Ratio ([1]; 0.17 hr): 0.4
Brain conc ([1]; 0.67 hr): 1150 nM
Plasma conc ([1]; 0.67 hr): 580 nM
Brain-to-plasma Ratio ([1]; 0.67 hr): 2
Brain-to-plasma Ratio ([1]; […]): 1.3
brain retention ([2]; oral 10 and 35 mpk, no measureable brain levels at 24 h): poor brain retention
brain half life compared with epothilone D ([2]; oral 35 mpk, FIG. 9): significantly shorter than epothilone D
Brain/Liver Ratio ([2]; oral gavage 10 mpk): 0.1
Brain conc ([2]; oral gavage 10 mpk, 5 hr): (3.7 nM)
Brain conc ([2]; oral gavage 10 mpk, 7 hr): (3.7 nM)
Brain conc ([2]; oral gavage 10 mpk, 24 hr): (3.7 nM)
Plasma conc ([2]; oral gavage 10 mpk, 24 hr): (0.2 nM)
Brain/Liver Ratio ([2]; oral gavage 35 mpk): 0.4
Brain conc ([2]; oral gavage 35 mpk, 24 hr): <LLQ
Kp at 1 h ([2]; mouse, 10 mg/kg, oral gavage 10 mpk, read-out: Brain/Plasma Ratio): 0.8
Kp at 1 h ([2]; mouse, 35 mg/kg, oral gavage 35 mpk, read-out: Brain/Plasma Ratio): 2.3
concentration at 1 h ([2]; mouse, brain, 10 mg/kg, oral gavage 10 mpk, read-out: Brain conc): 0.0096 µM
concentration at 1 hr ([2]; mouse, brain, 35 mg/kg, oral gavage 35 mpk, read-out: Brain conc): 0.0677 µM
concentration at 5 hr ([2]; mouse, brain, 35 mg/kg, oral gavage 35 mpk, 5 hr, read-out: Brain conc): 0.0046 µM
Kp at 5 h ([2]; mouse, brain/plasma, 35 mg/kg, oral gavage 35 mpk, 5 hr, read-out: Brain/Plasma Ratio): 1.4
concentration at 1 h ([2]; mouse, plasma, 10 mg/kg, oral gavage 10 mpk, read-out: Plasma conc): 0.0123 µM
concentration at 5 hr ([2]; mouse, plasma, 10 mg/kg, oral gavage 10 mpk, 5 hr, read-out: Plasma conc): 0.0013 µM
concentration at 7 hr ([2]; mouse, plasma, 10 mg/kg, oral gavage 10 mpk, 7 hr, read-out: Plasma conc): 0.0012 µM
concentration at 1 hr ([2]; mouse, plasma, 35 mg/kg, oral gavage 35 mpk, read-out: Plasma conc): 0.0477 µM
concentration at 5 hr ([2]; mouse, plasma, 35 mg/kg, oral gavage 35 mpk, 5 hr, read-out: Plasma conc): 0.003 µM
concentration at 24 hr ([2]; mouse, plasma, 35 mg/kg, oral gavage 35 mpk, 24 hr, read-out: Plasma conc): 0.0007 µM

Compound: C/C(=C\c1csc(CN)n1)[C@@H]1C[C@@H]2O[C@]2(C)CCC[C@H](C)[C@H](O)[C@@H](C)C(=O)C(C)(C)[C@@H](O)CC(=O)O1 [Compound II]
Brain-to-Liver Ratio ([3]; bolus IV 1 mpk, 6 hr): 0.01
Brain-to-Liver Ratio ([3]; bolus IV 1 mpk, 24 hr): 0.02
brain levels relative to peripheral tissue (ratio of brain-to-liver compound levels) ([3]; bolus IV, particularly at later times): modest brain levels relative to peripheral tissue
concentration at 6 h ([3]; nude, mouse, in vivo, iv, 1 mg/kg, Brain conc, bolus IV 1 mpk, 6 hr): 0.0068 µM
concentration at 24 h ([3]; nude, mouse, in vivo, iv, 1 mg/kg, Brain conc, bolus IV 1 mpk, 24 hr): 0.0013 µM
Kp at 6 h ([3]; nude, mouse, in vivo, iv, 1 mg/kg, Brain-to-plasma Ratio, bolus IV 1 mpk, 6 hr): 2.1
Kp at 24 h ([3]; nude, mouse, in vivo, iv, 1 mg/kg, Brain-to-plasma Ratio, bolus IV 1 mpk, 24 hr): 1.2
concentration at 6 h ([3]; nude, mouse, in vivo, iv, 1 mg/kg, Plasma conc, bolus IV 1 mpk, 6 hr): 0.003 µM
concentration at 24 h ([3]; nude, mouse, in vivo, iv, 1 mg/kg, Plasma conc, bolus IV 1 mpk, 24 hr): 0.001 µM

Kp at 1 h ([4]; 12 mg/kg): 0.73
Kp at 2 h ([4]; 12 mg/kg): 2.1
Kp at 6 h ([4]; 12 mg/kg): 7
Kp at 24 h ([4]; 12 mg/kg): 30
Kp at […] ([4]; 12 mg/kg): 0.05 and 0.16
concentration at 1 h ([4]; 12 mg/kg, Brain conc): 0.284 µM
concentration at 2 h ([4]; 12 mg/kg, Brain conc): 0.36 µM
concentration at 6 h ([4]; 12 mg/kg, Brain conc): 0.371 µM
concentration at 24 h ([4]; 12 mg/kg, Brain conc): 0.236 µM
concentration at 1 h ([4]; 12 mg/kg, Plasma conc): 0.39 µM
concentration at 2 h ([4]; 12 mg/kg, Plasma conc): 0.171 µM
concentration at 6 h ([4]; 12 mg/kg, Plasma conc): 0.053 µM
concentration at 24 h ([4]; 12 mg/kg, Plasma conc): 0.008 µM
Brain-to-Liver Ratio ([5]; 1 h): 0.07
Brain-to-Liver Ratio ([5]; 2 h): 0.11
Brain-to-Liver Ratio ([5]; 6 h): 0.30
Brain-to-Liver Ratio ([5]; 24 h): 1.2
Compound: C/C(=C\c1csc(C)n1)[C@@H]1C[C@@H]2O[C@]2(C)CCC[C@H](C)[C@H](O)[C@@H](C)C(=O)C(C)(C)[C@@H](O)CC(=O)N1 [Ixabepilone, (1S,3S,7S,10R,11S,12S,16R)-7,11-dihydroxy-8,8,10,12,16-pentamethyl-3-[(1E)-1-methyl-2-(2-methyl-4-thiazolyl)ethenyl]-17-oxa-4-azabicyclo[14.1.0]heptadecane-5,9-dione]
brain levels relative to peripheral tissue (ratio of brain-to-liver compound levels) [5]: modest brain levels relative to peripheral tissue

Compound: CC(=O)O[C@H]1C(=O)[C@@]2(C)[C@H]([C@H](OC(=O)c3ccccc3)[C@]3(O)C[C@H](OC(=O)[C@H](O)[C@@H](NC(=O)c4ccccc4)c4ccccc4)C(C)=C1C3(C)C)[C@]1(OC(C)=O)CO[C@@H]1C[C@@H]2O [Paclitaxel, paclitaxel]
Tau pathology (spheroids) [6]: unaffected
microtubule numbers and axonal transport in the ventral roots of the spinal cord [6]: increased microtubule numbers and axonal transport
motor dysfunction [6]: reduced motor dysfunction
concentration at 1 h ([4]; 4 mg/kg, Brain conc): 0.047 µM
concentration at 6 h ([4]; 4 mg/kg, Brain conc): 0.016 µM
concentration at 24 h ([4]; 4 mg/kg, Brain conc): 0.015 µM
Kp at 1 h ([4]; 4 mg/kg, Brain-to-plasma Ratio): 0.1
Kp at 6 h ([4]; 4 mg/kg, Brain-to-plasma Ratio): 0.37
Kp at 24 h ([4]; 4 mg/kg, Brain-to-plasma Ratio): 1.25
concentration at 1 h ([4]; 4 mg/kg, Plasma conc): 0.447 µM
concentration at 6 h ([4]; 4 mg/kg, Plasma conc): 0.043 µM
concentration at 24 h ([4]; 4 mg/kg, Plasma conc): 0.012 µM
brain levels ([5]; 4 mg/kg): low

Compound: NAP: a peptide of sequence NAPVSIPQ
protection against paclitaxel-induced peripheral neuropathy [7]: able to protect against paclitaxel-induced peripheral neuropathy
